Legend:
Experiment in all cases: relative viability (nuclei count vs DMSO), 5 days (fraction); higher = more cells survive
NCI-H1975 = system: NCI-H1975
In short: (§1)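 Each reported value is a median over duplicate plates. It expresses relative viability: treated-well nuclei count divided by vehicle-well nuclei count. Lung cancer cell lines in 1536-well plates were dosed by pin tool a day after seeding, alone with one drug or with a fixed anchor-drug dose plus five library-drug doses (not always all listed) in √10 steps, and nuclei were counted after 5 days.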

SK-LU-1 = system: SK-LU-1
In short: as §1

NCI-H520 = system: NCI-H520
In short: as §1

PC-3 [JPC-3] = system: PC-3 [JPC-3]
In short: as §1

NCI-H2342 = system: NCI-H2342
In short: as §1

NCI-H1792 = system: NCI-H1792
In short: as §1

NCI-H1650 = system: NCI-H1650
In short: as §1

NCI-H23 = system: NCI-H23
In short: as §1

EKVX = system: EKVX
In short: as §1

NCI-H661 = system: NCI-H661
In short: as §1

NCI-H441 = system: NCI-H441
In short: as §1

NCI-H460 = system: NCI-H460
In short: as §1

NCI-H1437 = system: NCI-H1437
In short: as §1

NCI-H1666 = system: NCI-H1666
In short: as §1

NCI-H838 = system: NCI-H838
In short: as §1

NCI-H322M = system: NCI-H322M
In short: as §1

NCI-H596 = system: NCI-H596
In short: as §1

NCI-H522 = system: NCI-H522
In short: as §1

NCI-H727 = system: NCI-H727
In short: as §1

NCI-H647 = system: NCI-H647
In short: as §1

NCI-H1915 = system: NCI-H1915
In short: as §1

LCLC-97TM1 = system: LCLC-97TM1
In short: as §1

NCI-H358 = system: NCI-H358
In short: as §1

Cc1csc(=NC2CCCCC2)n1/N=C/c1ccc(O)c(O)c1O [MIM1] + COc1cccc2cc(-c3nc([C@H]4CC[C@H](C(=O)O)CC4)n4ncnc(N)c34)[nH]c12 [OSI-027] (partner 0.5 µM)
relative viability (NCI-H1975; first compound 0.2 µM): 0.704
relative viability (NCI-H1975; first compound 0.6325 µM): 0.734
relative viability (NCI-H1975; first compound 2 µM): 0.584
relative viability (NCI-H1975; first compound 6.325 µM): 0.36
relative viability (NCI-H1975; first compound 20 µM): 0.336
relative viability (SK-LU-1; first compound 0.2 µM): 0.394
relative viability (SK-LU-1; first compound 0.6325 µM): 0.389
relative viability (SK-LU-1; first compound 2 µM): 0.41
relative viability (SK-LU-1; first compound 6.325 µM): 0.316
relative viability (SK-LU-1; first compound 20 µM): 0.325
relative viability (NCI-H520; first compound 0.2 µM): 0.245
relative viability (NCI-H520; first compound 0.6325 µM): 0.22
relative viability (NCI-H520; first compound 2 µM): 0.249
relative viability (NCI-H520; first compound 6.325 µM): 0.24
relative viability (NCI-H520; first compound 20 µM): 0.25
relative viability (PC-3 [JPC-3]; first compound 0.2 µM): 0.749
relative viability (PC-3 [JPC-3]; first compound 0.6325 µM): 0.733
relative viability (PC-3 [JPC-3]; first compound 2 µM): 0.647
relative viability (PC-3 [JPC-3]; first compound 6.325 µM): 0.657
relative viability (PC-3 [JPC-3]; first compound 20 µM): 0.545
relative viability (NCI-H2342; first compound 0.2 µM): 0.675
relative viability (NCI-H2342; first compound 0.6325 µM): 0.59
relative viability (NCI-H2342; first compound 2 µM): 0.663
relative viability (NCI-H2342; first compound 6.325 µM): 0.633
relative viability (NCI-H2342; first compound 20 µM): 0.728
relative viability (NCI-H1792; first compound 0.2 µM): 0.737
relative viability (NCI-H1792; first compound 0.6325 µM): 0.807
relative viability (NCI-H1792; first compound 2 µM): 0.791
relative viability (NCI-H1792; first compound 6.325 µM): 0.578
relative viability (NCI-H1792; first compound 20 µM): 0.596
relative viability (NCI-H1650; first compound 0.2 µM): 0.653
relative viability (NCI-H1650; first compound 0.6325 µM): 0.668
relative viability (NCI-H1650; first compound 2 µM): 0.447
relative viability (NCI-H1650; first compound 6.325 µM): 0.164
relative viability (NCI-H1650; first compound 20 µM): 0.147
relative viability (NCI-H23; first compound 0.2 µM): 0.53
relative viability (NCI-H23; first compound 2 µM): 0.563
relative viability (NCI-H23; first compound 6.325 µM): 0.306
relative viability (NCI-H23; first compound 20 µM): 0.156
relative viability (EKVX; first compound 0.2 µM): 0.803
relative viability (EKVX; first compound 0.6325 µM): 0.767
relative viability (EKVX; first compound 2 µM): 0.719
relative viability (EKVX; first compound 6.325 µM): 0.53
relative viability (EKVX; first compound 20 µM): 0.583
relative viability (NCI-H661; first compound 0.2 µM): 0.756
relative viability (NCI-H661; first compound 0.6325 µM): 0.684
relative viability (NCI-H661; first compound 2 µM): 0.636
relative viability (NCI-H661; first compound 6.325 µM): 0.534
relative viability (NCI-H661; first compound 20 µM): 0.31
relative viability (NCI-H441; first compound 0.2 µM): 0.575
relative viability (NCI-H441; first compound 2 µM): 0.625
relative viability (NCI-H441; first compound 6.325 µM): 0.472
relative viability (NCI-H441; first compound 20 µM): 0.191
relative viability (NCI-H460; first compound 0.2 µM): 0.651
relative viability (NCI-H460; first compound 0.6325 µM): 0.66
relative viability (NCI-H460; first compound 2 µM): 0.42
relative viability (NCI-H460; first compound 6.325 µM): 0.423
relative viability (NCI-H460; first compound 20 µM): 0.0316
relative viability (NCI-H1437; first compound 0.2 µM): 0.935
relative viability (NCI-H1437; first compound 0.6325 µM): 0.854
relative viability (NCI-H1437; first compound 2 µM): 0.952
relative viability (NCI-H1437; first compound 6.325 µM): 0.599
relative viability (NCI-H1437; first compound 20 µM): 0.186
relative viability (NCI-H1666; first compound 0.2 µM): 0.957
relative viability (NCI-H1666; first compound 0.6325 µM): 0.9
relative viability (NCI-H1666; first compound 2 µM): 0.804
relative viability (NCI-H1666; first compound 6.325 µM): 0.639
relative viability (NCI-H1666; first compound 20 µM): 0.459
relative viability (NCI-H838; first compound 0.2 µM): 0.469
relative viability (NCI-H838; first compound 0.6325 µM): 0.428
relative viability (NCI-H838; first compound 2 µM): 0.397
relative viability (NCI-H838; first compound 6.325 µM): 0.373
relative viability (NCI-H838; first compound 20 µM): 0.169
relative viability (NCI-H322M; first compound 0.2 µM): 0.593
relative viability (NCI-H322M; first compound 0.6325 µM): 0.526
relative viability (NCI-H322M; first compound 2 µM): 0.543
relative viability (NCI-H322M; first compound 6.325 µM): 0.508
relative viability (NCI-H322M; first compound 20 µM): 0.288
relative viability (NCI-H596; first compound 0.2 µM): 0.622
relative viability (NCI-H596; first compound 0.6325 µM): 0.757
relative viability (NCI-H596; first compound 2 µM): 0.72
relative viability (NCI-H596; first compound 6.325 µM): 0.628
relative viability (NCI-H596; first compound 20 µM): 0.659
relative viability (NCI-H522; first compound 0.2 µM): 0.761
relative viability (NCI-H522; first compound 0.6325 µM): 0.578
relative viability (NCI-H522; first compound 2 µM): 0.717
relative viability (NCI-H522; first compound 6.325 µM): 0.696
relative viability (NCI-H522; first compound 20 µM): 0.67
relative viability (NCI-H727; first compound 0.2 µM): 0.619
relative viability (NCI-H727; first compound 0.6325 µM): 0.712
relative viability (NCI-H727; first compound 2 µM): 0.599
relative viability (NCI-H727; first compound 6.325 µM): 0.552
relative viability (NCI-H727; first compound 20 µM): 0.338
relative viability (NCI-H647; first compound 0.2 µM): 0.708
relative viability (NCI-H647; first compound 0.6325 µM): 0.658
relative viability (NCI-H647; first compound 6.325 µM): 0.557
relative viability (NCI-H647; first compound 20 µM): 0.43
relative viability (NCI-H1915; first compound 0.2 µM): 0.669
relative viability (NCI-H1915; first compound 0.6325 µM): 0.495
relative viability (NCI-H1915; first compound 2 µM): 0.609
relative viability (NCI-H1915; first compound 6.325 µM): 0.49
relative viability (NCI-H1915; first compound 20 µM): 0.232
relative viability (LCLC-97TM1; first compound 0.2 µM): 0.437
relative viability (LCLC-97TM1; first compound 0.6325 µM): 0.455
relative viability (LCLC-97TM1; first compound 2 µM): 0.508
relative viability (LCLC-97TM1; first compound 6.325 µM): 0.503
relative viability (LCLC-97TM1; first compound 20 µM): 0.193
relative viability (NCI-H358; first compound 0.2 µM): 0.772
relative viability (NCI-H358; first compound 0.6325 µM): 0.7
relative viability (NCI-H358; first compound 2 µM): 0.755
relative viability (NCI-H358; first compound 6.325 µM): 0.447
relative viability (NCI-H358; first compound 20 µM): 0.128
